How the values were obtained:
[1] = Ring tensiometer
[2] = xn = mol fraction of the nth substance listed; settings: Ring tensiometer

CCn1cc[n+](C)c1.O=S(=O)([N-]S(=O)(=O)C(F)(F)F)C(F)(F)F
[1]
Settings | surface tension liquid-gas [mN/m]
293.15 K | 36.14
298.15 K | 35.9
303.13 K | 35.56
308.15 K | 35.35
313.15 K | 35.1

CCn1cc[n+](C)c1.O=S(=O)([N-]S(=O)(=O)C(F)(F)F)C(F)(F)F + C1CCOC1
surface tension liquid-gas [mN/m], [2]
Settings | x1 = 0.1037 | x1 = 0.2024 | x1 = 0.3255 | x1 = 0.3841 | x1 = 0.4425 | x1 = 0.5469 | x1 = 0.6863 | x1 = 0.7697 | x1 = 0.9177 | x1 = 1
293.15 K | 28.72 | 29.94 | 31.05 | 31.62 | 32.12 | 32.98 | 34.07 | 34.55 | 35.65 | 36.14
298.15 K | 28.1 | 29.42 | 30.62 | 31.18 | 31.76 | 32.63 | 33.81 | 34.38 | 35.46 | 35.9
303.13 K | 27.52 | 28.84 | 30.18 | 30.82 | 31.41 | 32.39 | 33.52 | 34.15 | 35.22 | 35.56
308.15 K | 26.88 | 28.33 | 29.84 | 30.52 | 31.07 | 32.08 | 33.26 | 33.92 | 34.98 | 35.35

CCn1cc[n+](C)c1.O=S(=O)([N-]S(=O)(=O)C(F)(F)F)C(F)(F)F + CC#N
surface tension liquid-gas [mN/m], [2]
Settings | x1 = 0.0533 | x1 = 0.1886 | x1 = 0.337 | x1 = 0.4724 | x1 = 0.652 | x1 = 0.8245 | x1 = 0.924 | x1 = 1
293.15 K | 30.48 | 32.72 | 34.02 | 34.77 | 35.38 | 35.83 | 35.98 | 36.14
298.15 K | 29.8 | 32.1 | 33.55 | 34.42 | 35.11 | 35.6 | 35.76 | 35.9
303.13 K | 29.26 | 31.63 | 33.15 | 33.99 | 34.8 | 35.29 | 35.5 | 35.56
308.15 K | 28.65 | 31.16 | 32.78 | 33.61 | 34.49 | 34.99 | 35.22 | 35.35
313.15 K | 28.04 | 30.69 | 32.36 | 33.28 | 34.2 | 34.75 | 35 | 35.1

CC#N [acetonitrile]
[1]
Settings | surface tension liquid-gas [mN/m]
293.15 K | 28.95
298.15 K | 28.37
303.13 K | 27.66
308.15 K | 27.03
313.15 K | 26.43

CC#N [acetonitrile] + CCn1cc[n+](C)c1.O=S(=O)([N-]S(=O)(=O)C(F)(F)F)C(F)(F)F
[2], x2 = 0
Settings | surface tension liquid-gas [mN/m]
293.15 K | 28.95
298.15 K | 28.37
303.13 K | 27.66
308.15 K | 27.03
313.15 K | 26.43

C1CCOC1 [tetrahydrofuran]
[1]
Settings | surface tension liquid-gas [mN/m]
293.15 K | 27.31
298.15 K | 26.68
303.13 K | 26.04
308.15 K | 25.38

C1CCOC1 [tetrahydrofuran] + CCn1cc[n+](C)c1.O=S(=O)([N-]S(=O)(=O)C(F)(F)F)C(F)(F)F
[2], x2 = 0
Settings | surface tension liquid-gas [mN/m]
293.15 K | 27.31
298.15 K | 26.68
303.13 K | 26.04
308.15 K | 25.38

— the NIST ThermoML archive (doi:10.1021/je101146f)
